Here are results for 4 molecules from patent publication US5863913A, “Aromatic compound and pharmaceutical composition” (Kureha Chemical Industry Co., Ltd., priority 1996, dated 1999).

SMILES strings stand for the structures.

Data set [1] can be described thus: Oral absorption (amount of compound in rat serum by HPLC, area under curve). Format: in vivo, Sprague-Dawley female rats. The following applies: single dosage 160 mg/kg in water, 0.5 to 24 hours, average of 3 rats. How it is done:
Twelve-week-old Sprague-Dawley female rats (3 rats per group) were bred for acclimation for a week. Then, the compounds of the present invention and a reference substrate were dissolved in water, and orally administered to the rats in a single dosage (160 mg/kg). After 0.5 hour, 1 hour, 2 hours, 4 hours, 6 hours, 8 hours, and 24 hours, the amounts of each compound (ng) per 1 ml of serum were measured using HPLC. Curves were obtained from the relation between an elapsed time after administration and the amount of the compound in serum at each elapsed time, respectively, and an average of the areas under the curves was calculated.
As a reference substance, Compound No. 184 disclosed in Japanese Unexamined Patent Publication (Kokai) No. 8-48651 was used. Compound No. 184 corresponds to the compound of the formula (I) wherein R^1 =nBu, A=N, Z=C, R^2 =CO, R^3 =NC4 H8 O, R^4 =H, R^5 =Me, and R^6 =Me.

Data set [2] concerns ICR female mice. Nature of the data set: Acute toxicity, single oral dose in mice. The following applies: mouse, in vivo. How it is done:
The aromatic compounds of the formula (I) according to the present invention were orally administered to mice at the dose of 500 mg/kg, but no fatalities were observed over a period of one week.
Five-week-old ICR female mice (5 mice per group) were bred for acclimation for a week. Then, the compounds of the present invention were dissolved in water, and orally administered to the mice in a single dosage (500 mg/kg).

The target in data set [3] is T1, angiotensin II receptor subtype 1 (AT1) (Oryctolagus cuniculus, UniProt P34976).
T1 construct: receptor : from adrenal glands in rabbits; from tissue; host or cells: rabbit adrenal glands
T1 sequence (P34976 1-359): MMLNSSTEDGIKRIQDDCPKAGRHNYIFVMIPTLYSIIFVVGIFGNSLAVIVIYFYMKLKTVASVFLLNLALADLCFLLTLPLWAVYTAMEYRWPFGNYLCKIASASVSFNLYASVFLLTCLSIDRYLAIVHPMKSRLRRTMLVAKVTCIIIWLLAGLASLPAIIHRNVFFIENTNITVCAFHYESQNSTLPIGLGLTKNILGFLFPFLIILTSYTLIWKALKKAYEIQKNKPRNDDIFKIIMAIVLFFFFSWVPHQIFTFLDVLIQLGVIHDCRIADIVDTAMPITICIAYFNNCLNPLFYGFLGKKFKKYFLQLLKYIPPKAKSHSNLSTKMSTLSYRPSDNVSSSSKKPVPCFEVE
Put plainly: Binding to receptors: angiotensin II receptor subtype 1 (AT1). Also noted: species or system rabbits (adrenal glands). The conditions noted are these: rabbit adrenal glands, tracer 3H-angiotensin II.

Data set [4] has as its target T2, angiotensin II receptor subtype 2 (AT2) (Bos taurus, UniProt G5E6F7).
T2 construct: receptor : from cerebellar cortex in bovine; from tissue; host or cells: bovine cerebellar cortex
T2 sequence (G5E6F7 1-362): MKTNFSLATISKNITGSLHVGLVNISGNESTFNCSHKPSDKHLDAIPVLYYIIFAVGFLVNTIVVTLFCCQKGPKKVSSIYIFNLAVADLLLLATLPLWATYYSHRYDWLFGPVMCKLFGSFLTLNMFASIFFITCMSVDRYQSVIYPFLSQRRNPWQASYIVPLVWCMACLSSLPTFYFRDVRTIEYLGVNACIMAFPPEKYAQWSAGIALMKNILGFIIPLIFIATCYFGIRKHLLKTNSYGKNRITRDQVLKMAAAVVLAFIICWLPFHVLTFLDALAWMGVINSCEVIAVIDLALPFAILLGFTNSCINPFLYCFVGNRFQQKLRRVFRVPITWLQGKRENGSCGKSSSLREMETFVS
Put plainly: Binding to receptors: angiotensin II receptor subtype 2 (AT2). The following applies: bovine cerebellar cortex, tracer 125I-Tyr4-angiotensin II. The protocol:
In this Example, the affinity to the angiotensin II receptor subtype 1 or subtype 2 was evaluated by a binding assay in accordance with the method described in Biochem. Pharmacol., 33, 4057-4062 (1984).
Specifically, the measurement of the total binding in the presence of each drug was performed as follows:
A mixture (final volume=0.25 ml) of a drug in a given concentration (the drug was dissolved in DMSO, and diluted to a double volume with a buffer attached to a drug discovery system to prepare a sample for the assay; 0.025 ml), a tracer (0.025 ml), and receptors (0.2 ml) was incubated [in the case of the angiotensin II receptor subtype 1 (AT1), at room temperature for 3 hours, and in the case of the subtype 2 (AT2), at 37° C. for 1 hour]. Then, the reaction mixture was filtered with suction (GF/C filter was used in AT1, and GF/B filter was used in AT2). The filter papers after filtration with suction (the tracer bound to the receptors) were counted by a γ-well counter (ARC-500, Aloka). The non-specific bindings were measured by repeating the above method, except that a large excess amount of a displacer was added. The specific binding of the drug in the given concentration was calculated by subtracting the non-specific binding from the total binding, respectively.
In AT1 and AT2, the percentages found to inhibit the bindings of radioactive ligands (tracer) to receptors by the drugs to be tested (IC50 value of concentration to show 50% inhibition, or binding inhibition % in 100 μM) were measured, using the drugs to be tested and control drugs in the given concentration.
receptor : from cerebellar cortex in bovine
tracer : ^125 ITyr^4angiotensin II
control drug : angiotensin II (human)
(displacer) : angiotensin II (human)

Data set [5] relates to kidney disease model rats. Put plainly: Action to lower blood pressure in kidney disease model rats (tail cuff). Format: in vivo, Sprague-Dawley female rats. The following applies: systolic, average of 8 rats, 20 mg/kg with drinking water, two days after administration; control 210.
The test system of data set [6] is kidney disease model rats. Put plainly: Survival time of kidney diseased animals. Type of data set: in vivo, Sprague-Dawley female rats. The following applies: 20 mg/kg/day with drinking water, observation period eight weeks (upper limit); control 5.0.

Consider `CCCCCCC(=O)N(Cc1ccc(C(=O)O)cc1)c1cc(C(=O)N2CCN(C)CC2)ccc1N(C)C` [Compound No. 13, 3-[[(4-carboxyohenyl)methyl]n-heptanamido]-4-dimethylaminobenzoic acid 4'-methylpiperazide], for which the exposure (AUC) (usually the area under the concentration-time curve, a measure of exposure) at 24 h in data set [1] is 1460 ng·h/mL. Also, the “Number of deaths/number of survivals” value in data set [2] is listed as 0/5. The inhibition at 100 µM in data set [3] and in data set [4] was 0% throughout. For the same molecule, in data set [5], the “Blood Pressure” value came out at 208 mmHg. For the same molecule, the Average survival time in data set [6] amounted to 6.9 weeks.
Take `CCCCC(=O)N(Cc1ccc(C(=O)OCCN(C)C)cc1)c1cc(C(=O)N2CCOCC2)ccc1C(C)C` [Compound No. 6, 3-N-[[[4-(2'-dimethylaminoethoxycarbonyl)phenyl]methyl]valeramido]-4-i-propylbenzoic acid morpholide]: in data set [1], the AUC at 24 h was found to be 34700 ng·h/mL. The “Number of deaths/number of survivals” value in data set [2] is 0/5. Besides, the inhibition (in general, the change of the read-out against control, counted positive when it falls) at 100 µM in data set [3] came to 11%; in data set [4], 21%. For the same molecule, the “Blood Pressure” value in data set [5] was 209 mmHg. The same molecule returned an Average survival time in data set [6] of 7.0 weeks.
Turning to `CCCCC(=O)N(Cc1ccc(C(=O)OCCCN(C)C)cc1)c1cc(C(=O)N2CCOCC2)ccc1C(C)C` [Compound No. 7, 3-N-[[[4-(3'-dimethylamino-1'-propoxycarbonyl)phenyl]methyl]valeramido]-4-i-propylbenzoic acid morpholide], the exposure (AUC) at 24 h in data set [1] was 14000 ng·h/mL. Besides, in data set [2], the “Number of deaths/number of survivals” value is given as 0/5. Besides, the inhibition at 100 µM in data set [3] amounted to 14%; in data set [4], 0%. In data set [5], the “Blood Pressure” value is on record as 206 mmHg. The molecule also gave an Average survival time in data set [6] of 6.9 weeks.
In the case of `CCCCC(=O)N(Cc1ccc(C(=O)O)cc1)c1cc(C(=O)N2CCN(CCC)CC2)ccc1C(C)C` [Compound No. 19, 3-[[(4-carboxyphenyl)methyl]valeramido]-4-i-propylbenzoic acid 4'-n-propylpiperazide], the AUC at 24 h in data set [1] amounted to 172000 ng·h/mL. Moreover, the “Number of deaths/number of survivals” value in data set [2] was 0/5. For the same molecule, the inhibition at 100 µM in data set [3] worked out at 11%; in data set [4], 18%. In addition, in data set [5], the “Blood Pressure” value is recorded as 194 mmHg. Besides, in data set [6], the Average survival time is recorded as 7.2 weeks.
